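All cell lines were grown in 96-well plates and treated with compound for 48 hours. Abbreviation: GI50, concentration required for 50% inhibition of growth.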 Activity calls are given as the source filed them. Rule as the data show it: active = GI50 up to about 1.1 µM and inactive = higher.
Key:
Assay in all cases: NCI anticancer screen, dose series, 48 h
UACC-62 = test system: UACC-62
HOP-62 = test system: HOP-62
NCI/ADR-RES = test system: NCI/ADR-RES
NCI-H460 = test system: NCI-H460
DU-145 = test system: DU-145
HCC 2998 = test system: HCC 2998
OVCAR-5 = test system: OVCAR-5
CAKI-1 = test system: CAKI-1
UACC-257 = test system: UACC-257
HCT-15 = test system: HCT-15
SNB-19 = test system: SNB-19
COLO 205 = test system: COLO 205
SNB-75 = test system: SNB-75
HT-29 = test system: HT-29
BT-549 = test system: BT-549
SK-MEL-5 = test system: SK-MEL-5
LOX IMVI = test system: LOX IMVI
EKVX = test system: EKVX
M14 = test system: M14
MDA-MB-231 = test system: MDA-MB-231

| Compound | GI50 (UACC-62) | GI50 (HOP-62) | GI50 (NCI/ADR-RES) | GI50 (NCI-H460) | GI50 (DU-145) | GI50 (HCC 2998) | GI50 (OVCAR-5) | GI50 (CAKI-1) | GI50 (UACC-257) | GI50 (HCT-15) [µM] | GI50 (SNB-19) | GI50 (COLO 205) | GI50 (SNB-75) | GI50 (HT-29) | GI50 (BT-549) | GI50 (SK-MEL-5) | GI50 (LOX IMVI) | GI50 (EKVX) | GI50 (M14) | GI50 (MDA-MB-231) |
| --- | --- | --- | --- | --- | --- | --- | --- | --- | --- | --- | --- | --- | --- | --- | --- | --- | --- | --- | --- | --- |
| Cc1cc(S(=O)(=O)Nc2nnc3c4ccccc4cnn23)c(S)cc1Cl | 46.9 µM (inactive) | 52.8 µM (inactive) | > 64.7 µM (inactive) | 31.3 µM (inactive) | 61.9 µM (inactive) | 42.2 µM (inactive) | > 100 µM (inactive) | > 100 µM (inactive) | > 100 µM (inactive) | > 58.6 | 26.5 µM (inactive) | > 100 µM (inactive) | 69.8 µM (inactive) | > 100 µM (inactive) | > 54.5 µM (inactive) | > 81.5 µM (inactive) | > 100 µM (inactive) | 44 µM (inactive) | > 100 µM (inactive) | > 93.3 µM (inactive) |
| O=[N+]([O-])C(=C(N1CCOCC1)N1CCOCC1)/C(Cl)=C(\Cl)[N+](=O)[O-] | 16.6 µM (inactive) | 15.7 µM (inactive) | 21.4 µM (inactive) | 25.2 µM (inactive) | 7.45 µM (inactive) | 20.4 µM (inactive) | 14.6 µM (inactive) | 1.64 µM (inactive) | 5.55 µM (inactive) | 2.7 | 25.8 µM (inactive) | 3.18 µM (inactive) | 19.4 µM (inactive) | 4.1 µM (inactive) | 4.59 µM (inactive) | 1.66 µM (inactive) | 2.15 µM (inactive) | 8.73 µM (inactive) | 6.35 µM (inactive) | 3.85 µM (inactive) |
| Cc1c(C)c(S(=O)(=O)N(CCCCCCN)OCCCN)c(C)c2c1OC(C)(C)CC2 | 11.4 µM (inactive) | 4.36 µM (inactive) | 15.5 µM (inactive) | 2.69 µM (inactive) | 26.4 µM (inactive) | 2.04 µM (inactive) | > 28.7 µM (inactive) | 15.8 µM (inactive) | 11 µM (inactive) | 15.1 | 3.96 µM (inactive) | 4.29 µM (inactive) | 2.99 µM (inactive) | 5.6 µM (inactive) | 13.3 µM (inactive) | 10.6 µM (inactive) | 2.4 µM (inactive) | 6.65 µM (inactive) | 17.8 µM (inactive) | 3.56 µM (inactive) |
| CC1(C)c2ccccc2C(=O)C12CCC(=O)CC2 | > 100 µM (inactive) | > 100 µM (inactive) | > 100 µM (inactive) | > 100 µM (inactive) | > 100 µM (inactive) | > 100 µM (inactive) | > 100 µM (inactive) | > 100 µM (inactive) | > 100 µM (inactive) | > 100 | > 100 µM (inactive) | > 100 µM (inactive) | 0.504 µM (active) | > 100 µM (inactive) | > 100 µM (inactive) | > 10 µM (inactive) | > 100 µM (inactive) | > 100 µM (inactive) | > 100 µM (inactive) | > 100 µM (inactive) |
| C[C@H](CCC(=O)NCCS(=O)(=O)O)[C@H]1CC[C@H]2[C@@H]3CC[C@@H]4C[C@H](O)CC[C@]4(C)[C@H]3CC[C@]12C | > 100 µM (inactive) | > 100 µM (inactive) | > 100 µM (inactive) | > 100 µM (inactive) | > 100 µM (inactive) | > 100 µM (inactive) | > 100 µM (inactive) | > 100 µM (inactive) | > 100 µM (inactive) | > 100 | > 100 µM (inactive) | > 100 µM (inactive) | > 100 µM (inactive) | > 100 µM (inactive) | > 100 µM (inactive) | > 100 µM (inactive) | > 100 µM (inactive) | > 100 µM (inactive) | > 100 µM (inactive) | > 100 µM (inactive) |
| CN(CCNCc1cn(C)c2c1ccc1ccccc12)CCNCc1cn(C)c2c1ccc1ccccc12 | 1.67 µM (inactive) | 1.79 µM (inactive) | 1.54 µM (inactive) | 0.583 µM (active) | 1.64 µM (inactive) | 0.301 µM (active) | 1.74 µM (inactive) | 1.73 µM (inactive) | 1.55 µM (inactive) | 1.46 | 1.39 µM (inactive) | 0.948 µM (active) | 1.21 µM (inactive) | 1.61 µM (inactive) | 1.57 µM (inactive) | 1.87 µM (inactive) | 1.52 µM (inactive) | 1.72 µM (inactive) | 0.726 µM (active) | 1.79 µM (inactive) |
| COc1ccc(-c2cc3c(c4cc(OC)ccc24)C(=O)OC3=O)cc1 | > 100 µM (inactive) | > 100 µM (inactive) | > 100 µM (inactive) | > 100 µM (inactive) | > 100 µM (inactive) | > 100 µM (inactive) | > 100 µM (inactive) | > 100 µM (inactive) | > 100 µM (inactive) | > 100 | > 100 µM (inactive) | > 100 µM (inactive) | 68.1 µM (inactive) | > 100 µM (inactive) | > 100 µM (inactive) | > 100 µM (inactive) | > 100 µM (inactive) | > 100 µM (inactive) | > 100 µM (inactive) | > 100 µM (inactive) |
| CC1=NN(C(=O)c2ccncc2)C(=O)C1/N=N/c1ccc2ccccc2c1 (stereo not given) | 44.2 µM (inactive) | > 100 µM (inactive) | 13.7 µM (inactive) | 21.5 µM (inactive) | > 73.5 µM (inactive) | 3.03 µM (inactive) | > 60.7 µM (inactive) | > 100 µM (inactive) | > 100 µM (inactive) | 7.41 | > 100 µM (inactive) | 18.7 µM (inactive) | > 100 µM (inactive) | 11.7 µM (inactive) | > 100 µM (inactive) | 19.2 µM (inactive) | 30.1 µM (inactive) | 2.71 µM (inactive) | 12.2 µM (inactive) | 20.8 µM (inactive) |
| CC(=O)O[C@H]1C[C@]2(O)[C@@H]3CC[C@@H]4C[C@@H](O)CC[C@]4(C)[C@H]3CC[C@]2(C)[C@H]1C1=CC(=O)OC1 | 0.211 µM (active) | 0.0493 µM (active) | 0.074 µM (active) | 0.0289 µM (active) | 0.0316 µM (active) | 0.161 µM (active) | 0.182 µM (active) | 0.034 µM (active) | 0.18 µM (active) | 0.0843 | 0.381 µM (active) | 0.236 µM (active) | 0.153 µM (active) | 0.0986 µM (active) | 0.0284 µM (active) | 0.0318 µM (active) | 0.0585 µM (active) | 0.0458 µM (active) | 0.172 µM (active) | 0.404 µM (active) |
| O=c1oc2ccccc2c(Nc2ccc3c(c2)S(=O)(=O)c2ccccc2O3)c1[N+](=O)[O-] | 14.5 µM (inactive) | 30 µM (inactive) | 34.4 µM (inactive) | 25.5 µM (inactive) | 27.6 µM (inactive) | 18.5 µM (inactive) | 70 µM (inactive) | 17.8 µM (inactive) | 19.5 µM (inactive) | 25.8 | 26.9 µM (inactive) | 22.3 µM (inactive) | 22 µM (inactive) | 34.5 µM (inactive) | 24.2 µM (inactive) | 20.1 µM (inactive) | 27 µM (inactive) | 30.6 µM (inactive) | 26.2 µM (inactive) | 24.5 µM (inactive) |
